From patent publication US20250108034A1, “EYE DROP FORMULATION” (priority 2021, published 2025)

Key:
[1] = test system: conjunctival and corneal surface of rabbit eyes; details: in vivo
[2] = Stability study (shelf-life) of ASP and ASP-CD complexes in physiological saline; format: physicochemical; details: for Shelf-life (t90%): physiological saline
Procedure: The determination of ASP concentration was performed with HPLC using an Agilent 1260 (Agilent Technologies, Santa Clara, USA). As stationary phase a Zorbax Eclipse© C18 column 100×4.6 mm, 5 μm (Phenomenex, Torrance, CA, USA) was applied. Isocratic elution with purified water and methanol 10:90 (v/v) was applied for 6 min at a flow rate of 1.0 mL/min at 25° C. 10 μL of the samples were injected to determine the ASP concentration. The chromatograms were detected at 255 nm using UV-VIS diode array detector. Data were evaluated using ChemStation B.04.03. Software (Agilent Technologies, Santa Clara, USA). […] Chemical stability of ASP and ASP-CD complexes was investigated in physiological saline at room condition (25±0.5° C.) and cold place condition (4±0.5° C.) for 5 days. Actual drug content was quantified using HPLC in predetermined time intervals to predict shelf-life of formulations.

[3] = Ex vivo corneal drug permeation with Raman mapping; format: in vitro ADME, porcine; details: after 15 min treatment, compared to 5 min treatment
Procedure: The ex vivo penetration of ASP was examined with HPLC and Raman microscopy. Freshly donated porcine eyes obtained from the slaughterhouse was placed on a sterile cotton wool bed moistened with physiological saline solution and kept in refrigerator box during the transportation. The porcine eye was placed into a Teflon cell, where the cornea was uncovered and surrounded by a Teflon ring to prevent the flow of eye drops. The cornea was instilled with 1000 μL of physiological saline solution and 50 μL of ASP-CD formulation was added to the covering saline solution, which can imitate physiological dilution caused by tear fluid and incubated at 35° C. […] ASP content in the residual solution, aqueous humour and cornea was determined with HPLC. The corneal retention of AS was calculated according to Eq. 2., whereas apparent permeability by using the following equation: […]
Raman mapping was carried out to examine the distribution of selected ASP-CD formulation and initial ASP on porcine cornea. […] For localization of permeated formulation, the Raman spectra of ASP was set as profile, whose frequency of occurrence was determined by measuring the relative intensity of ASP in the Raman maps with ImageJ 1.4 software (National Institutes of Health, Bethesda, MD, USA).

[4] = test system: conjunctival and corneal surface of rabbit eyes; assay: Ocular administration of cyclodextrins to rabbit eyes (irritation/tolerability); details: concentrations of 5 and 12.5%

## CC(O)COC[C@H]1O[C@@H]2O[C@H]3[C@H](O)[C@@H](O)[C@@H](O[C@H]4[C@H](O)[C@@H](O)[C@@H](O[C@H]5[C@H](O)[C@@H](O)[C@@H](O[C@H]6[C@H](O)[C@@H](O)[C@@H](O[C@H]7[C@H](O)[C@@H](O)[C@@H](O[C@H]8[C@H](O)[C@@H](O)[C@@H](O[C@H]1[C@H](O)[C@H]2O)O[C@@H]8COCC(C)O)O[C@@H]7COCC(C)O)O[C@@H]6COCC(C)O)O[C@@H]5COCC(C)O)O[C@@H]4COCC(C)O)O[C@@H]3COCC(C)O (stereo partly drawn) [HPBCD, (2-Hydroxypropyl)-beta-cyclodextrin]
[1]
  Ocular tolerability: well tolerated

## benzalkonium chloride [BC]
[2]; 0.004 and 0.008% BC
  Effect of BC on the shelf-life: no significant effect

## CCCCCCCCCCCCCCCC(=O)OC[C@H](O)[C@H]1OC(=O)C(O)=C1O [ASP, L-Ascorbic acid 6-palmitate]
[2]; stored at 4° C.
  Shelf-life (t90%): 4.58 h
[2]; stored at 25° C.
  Shelf-life (t90%): 8.37 h
[3]
  Relative intensity of ASP in Raman maps: increased

## randomly substituted methyl-beta-cyclodextrin [RAMEB]
[4]
  Ocular irritation: irritating
